Measured values taken from patent publication US4753965A, “Method of treating multiple sclerosis with chalcone derivatives” (Merrell Dow Pharmaceuticals, Inc., priority 1987, dated 1988).
Converted amounts (≈) assume the structure as drawn.

Legend:
[1] = test system: Experimental Allergic Encephalomyelitis (EAE); experiment: Experimental Allergic Encephalomyelitis (EAE) in rats; format: in vivo, Lewis strain rats
Description: Effect of α-methyl-4-dimethylamino-2',5'-dimethoxychalcone on Experimental Allergic Encephalomyelitis (EAE) in Rats
EAE was induced in rats as described by Rosenthal and Nagra, Proc. Soc.
Lewis strain rats ranging in weight
from 100-200 g were sensitized with encephalitogenic emulsion consisting
of homogenized spinal cord in complete Freund's adjuvant. The test
compound and hydrocortisone (HC) were administered in
polyvinylpyrrolidone vehicle. The test compound was administered i.p.
once daily from day 1 through day 10. HC was administered s.c. once
every other day from day 1 through day 10. The incidence of paralysis
was recorded and mean paralysis time was calculated.

HeLa cells = experiment: Growth inhibition of HeLa cells; format: cell-based; conditions: Homo sapiens, 72 hours
Description: The compounds of structure 1 inhibit the polymerization of tubulin, and thus the formation of microtubules, that ubiquitous substance of eukaryotic cells which serves a variety of functions, most importantly, to separate the duplicated sets of chromosomes during cell mitosis.
For growth inhibition studies, exponentially growing HeLa cells
were incubated at a density of 1 × 10^5 cells/35 mm dish with
number of dilutions of the test compound in the medium. The
plates were incubated at 37° C. in a CO2 incubation. At the
of 72 hours the cells were collected by trypinization and
counted and the IC50 (.upsilon.g/ml) was determined.

[2] = 6.25 mg/kg i.p. once daily day 1 through day 10
[3] = 12.5 mg/kg i.p. once daily day 1 through day 10
[4] = 25.0 mg/kg i.p. once daily day 1 through day 10

| IC50 (HeLa cells) [µg/mL] | SMILES | number paralyzed/total number of animals ([1]; 25.0 mg/kg s.c. once every other day day 1 through day 10) | PARALYSIS TIME (Mean ± S.E.) [1, 2] [days] | PERCENT INCIDENCE OF PARALYSIS [1, 2] [%] | number paralyzed/total number of animals [1, 2] | PARALYSIS TIME (Mean ± S.E.) [1, 3] [days] | PERCENT INCIDENCE OF PARALYSIS [1, 3] [%] | number paralyzed/total number of animals [1, 3] | PARALYSIS TIME (Mean ± S.E.) [1, 4] [days] | PERCENT INCIDENCE OF PARALYSIS [1, 4] [%] | number paralyzed/total number of animals [1, 4] |
| --- | --- | --- | --- | --- | --- | --- | --- | --- | --- | --- | --- |
|  | C[C@]12CCC(=O)C=C1CC[C@@H]1[C@@H]2[C@@H](O)C[C@@]2(C)[C@H]1CC[C@]2(O)C(=O)CO [HYDROCORTISONE, hydrocortisone, reference compound] | 14/19 |  |  |  |  |  |  |  |  |  |
| 0.015 (≈ 0.0461 µM) | COc1ccc(OC)c(C(=O)C(C)=Cc2ccc(N(C)C)cc2)c1 [COMPOUND, 1-(2,5-dimethoxyphenyl)-3-[4-(dimethylamino)phenyl]-2-methyl-2-propen-1-one] |  | 9.7 ± 0.36 | 90 | 9/10 | 9.4 ± 0.26 | 80 | 8/10 | 10.8 ± 0.54 | 40 | 7/18 |
